# Measurements taken from US6211244A, “Calcium receptor-active compounds” (priority 1995, dated 2001).
# Like-named read-outs stand apart in the source and are kept apart here.
# Target: T1, human calcium receptor (Homo sapiens, UniProt P41180, R990G)
# T1 construct: expressed in transfected cells; host or cells: HEK 293
# T1 sequence (P41180 20-1078 R990G): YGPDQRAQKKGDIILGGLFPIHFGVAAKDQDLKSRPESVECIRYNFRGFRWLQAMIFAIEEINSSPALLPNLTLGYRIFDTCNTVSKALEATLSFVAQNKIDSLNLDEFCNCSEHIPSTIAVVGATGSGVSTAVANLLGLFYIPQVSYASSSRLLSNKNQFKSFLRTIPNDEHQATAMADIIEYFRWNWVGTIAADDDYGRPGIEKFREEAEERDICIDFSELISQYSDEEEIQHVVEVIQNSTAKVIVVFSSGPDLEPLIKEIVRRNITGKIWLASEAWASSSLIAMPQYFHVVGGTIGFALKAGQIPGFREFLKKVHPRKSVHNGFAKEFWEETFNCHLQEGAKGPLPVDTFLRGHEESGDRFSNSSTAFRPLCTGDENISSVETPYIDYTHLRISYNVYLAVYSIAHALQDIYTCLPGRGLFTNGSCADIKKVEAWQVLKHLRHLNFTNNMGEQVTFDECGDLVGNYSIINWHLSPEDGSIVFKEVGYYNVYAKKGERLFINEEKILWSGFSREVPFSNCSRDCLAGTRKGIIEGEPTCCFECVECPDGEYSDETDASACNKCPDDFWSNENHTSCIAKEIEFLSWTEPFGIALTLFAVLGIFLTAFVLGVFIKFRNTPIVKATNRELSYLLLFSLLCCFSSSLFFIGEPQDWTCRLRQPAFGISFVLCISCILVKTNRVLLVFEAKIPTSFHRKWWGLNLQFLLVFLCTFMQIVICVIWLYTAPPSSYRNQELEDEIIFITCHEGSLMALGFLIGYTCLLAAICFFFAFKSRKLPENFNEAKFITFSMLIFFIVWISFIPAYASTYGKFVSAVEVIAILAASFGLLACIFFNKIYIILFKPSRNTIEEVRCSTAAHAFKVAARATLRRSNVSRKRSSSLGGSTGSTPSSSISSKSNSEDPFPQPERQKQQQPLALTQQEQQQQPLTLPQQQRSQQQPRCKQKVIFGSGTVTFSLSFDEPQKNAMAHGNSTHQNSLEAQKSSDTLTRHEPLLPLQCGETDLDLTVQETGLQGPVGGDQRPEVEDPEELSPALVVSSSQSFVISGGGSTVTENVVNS
# Experiment: increases in [Ca^2+ ]i in HEK-293 cells expressing the human calcium receptor (fura-2 loaded HEK 293/pHuPCaR4.0 cells), % activity
# Format: cell-based
# Details: for activity at […]: HEK293
SMILES,% activity (33 ng/mL) [%],% activity (330 ng/mL) [%],% activity (3300 ng/mL) [%],% activity,activity at […] (33 ng/mL) [%],activity at […] (330 ng/mL) [%]
COc1cccc(C(C)NCc2ccc3ccccc3c2)c1 (centres unmarked) [Compound 10P],74,102,–,–,–,–
CC(NC(C)c1cccc2ccccc12)c1ccc2c(c1)-c1ccccc1-2 (centres unmarked) [Compound 10Q],84,100,103,–,–,–
CC(NC(C)c1cccc2ccccc12)c1ccc2c(c1)-c1ccccc1-2 (centres unmarked) [Compound 10R],42,82,–,–,–,–
CC(NC1CC1c1ccccc1)c1cccc2ccccc12 (centres unmarked) [Compound 10V],62,99,–,–,–,–
C=CCOc1cccc([C@@H](C)NCc2ccc3ccccc3c2)c1 [Compound 10Z],51,96,–,–,–,–
CCOC(=O)COc1cccc([C@@H](C)NCc2ccc3ccccc3c2)c1 [Compound 11D],50,96,–,–,–,–
COc1cccc([C@@H](C)NCc2cccc(OCc3ccccc3)c2)c1 [Compound 11W],44,81,–,–,–,–
"CC(C)c1ccc(CN[C@H](C)c2cccc3ccccc23)cc1.Cl [Compound 11X, N-(4-Isopropylbenzyl)-(R)-1-(1-naphthyl)ethylamine hydrochloride]",76,100,–,–,–,–
COc1cccc([C@@H](C)NCc2ccc(C(C)C)cc2)c1 [Compound 11Y],61,103,–,–,–,–
"COc1cccc([C@@H](C)NCC=Cc2ccc(C)cc2)c1 [Compound 12B, (R)-N-[3-(4-methylphenyl)prop-2-enyl]-1-(3-methoxyphenyl)ethylamine]",56,110,130,–,–,–
"COc1cccc([C@@H](C)NCC=Cc2ccccc2C)c1 [Compound 12C, (R)-N-[3-(2-methylphenyl)prop-2-enyl]-1-(3-methoxyphenyl)ethylamine]",98,125,134,–,–,–
"COc1cccc([C@@H](C)NCC=Cc2c(C)cc(C)cc2C)c1 [Compound 12D, (R)-N-[3-(2,4,6-trimethylphenyl)prop-2-enyl]-1-(3-methoxyphenyl)ethylamine]",52,109,128,–,–,–
"COc1cccc([C@@H](C)NCC=Cc2ccc(C(C)C)cc2)c1 [Compound 12E, (R)-N-[3-(4-isopropylphenyl)prop-2-enyl]-1-(3-methoxyphenyl)ethylamine]",73,121,117,–,–,–
"COc1cccc([C@@H](C)NCC=Cc2ccc(C)cc2C)c1 [Compound 12F, (R)-N-[3-(2,4-dimethylphenyl)prop-2-enyl]-1-(3-methoxyphenyl)ethylamine]",101,110,118,–,–,–
"COc1cccc([C@@H](C)NCC=Cc2cccc(C)c2)c1 [Compound 12G, (R)-N-[3-(3-methylphenyl)prop-2-enyl]-1-(3-methoxyphenyl)ethylamine]",81,139,139,–,–,–
COc1cccc([C@@H](C)NCc2cccc(Oc3ccccc3)c2)c1 [Compound 12H],94,115,114,–,–,–
C[C@@H](NCc1ccc(OCc2ccccc2)cc1)c1cccc2ccccc12 [Compound 12I],93,111,115,–,–,–
CC(NCc1cccc(OCc2ccccc2)c1)c1cccc2ccccc12 (centres unmarked) [Compound 12J],113,130,131,–,–,–
C[C@@H](NCc1ccccc1)c1cccc2ccccc12 [Compound 12L],–,88,–,45,–,–
COc1cccc(C(C)NCc2ccc(C=Cc3ccccc3)cc2)c1 (centres unmarked) [Compound 12M],56,86,98,–,–,–
C[C@@H](NCc1ccc(C(C)(C)c2ccccc2)cc1)c1cccc2ccccc12 [Compound 12N],102,106,115,–,–,–
COc1cccc([C@@H](C)NCc2ccc(C(C)(C)c3ccccc3)cc2)c1 [Compound 12O],94,117,110,–,–,–
COc1cccc([C@@H](C)NCCCc2ccc(C(C)C)cc2)c1 [Compound 12Y],46,80,–,–,–,–
CC(NC(C)c1ccc(C(C)(C)C)cc1)c1ccccc1 (centres unmarked) [Compound 13E],40,94,123,–,–,–
CC(N[C@H](C)c1ccc2ccccc2c1)c1ccc(C(C)(C)C)cc1 (some centres unmarked) [Compound 13F],85,122,125,–,–,–

SMILES,% activity (33 ng/mL) [%],% activity (330 ng/mL) [%],% activity (3300 ng/mL) [%],% activity,activity at […] (33 ng/mL) [%],activity at […] (330 ng/mL) [%]
C[C@@H](NCc1cccc(Cl)c1)c1cccc2ccccc12 [Compound 13M],66,92,–,–,–,–
CCc1ccc(CN[C@H](C)c2cccc3ccccc23)cc1 [Compound 13N],88,114,–,–,–,–
C[C@@H](NCc1ccc(Cl)cc1)c1cccc2ccccc12 [Compound 13O],94,115,–,–,–,–
Cc1ccc(CN[C@H](C)c2cccc3ccccc23)cc1 [Compound 13P],83,110,–,–,–,–
C[C@@H](NCc1ccc(Cl)c(Cl)c1)c1cccc2ccccc12 [Compound 13R],98,132,–,–,–,–
C[C@@H](NCc1ccc(F)cc1)c1cccc2ccccc12 [Compound 13T],53,90,–,–,–,–
COc1ccc(CN[C@H](C)c2cccc3ccccc23)cc1 [Compound 13U],79,108,–,–,–,–
C[C@@H](NCc1ccc(N(C)C)cc1)c1cccc2ccccc12 [Compound 13V],79,110,–,–,–,–
C[C@@H](NCc1ccc([N+](=O)[O-])cc1)c1cccc2ccccc12 [Compound 13W],71,109,–,–,–,–
COc1cccc([C@@H](C)NC[C@@H](C)c2ccc(CC(C)C)cc2)c1 [Compound 13Y],2,47,106,–,–,–
CC(C)Cc1ccc(C(C)CNC(C)c2cccc3ccccc23)cc1 (centres unmarked) [Compound 13Z],22,54,93,–,–,–
Cc1ccc(CNC(C)c2ccc(C(C)(C)C)cc2)cc1 (centres unmarked) [Compound 14B],11,55,75,–,–,–
CC(NCCc1ccccc1)c1ccc(C(C)(C)C)cc1 (centres unmarked) [Compound 14H],5,49,112,–,–,–
CCN(CCCc1ccccc1)C(C)c1ccc(C(C)(C)C)cc1 (centres unmarked) [Compound 14I],11,–,80,45,–,–
CC(c1ccc(C(C)(C)C)cc1)N(C)CCCc1ccccc1 (centres unmarked) [Compound 14J],6,41,55,–,–,–
CC(C)c1ccc([C@@H](C)N[C@H](C)c2cccc3ccccc23)cc1 [Compound 14L],–,–,–,–,78,109
C[C@@H](NCCc1ccccc1)c1cccc2ccccc12 [Compound 14N],55,89,–,–,–,–
C[C@@H](N[C@H](C)c1cccc2ccccc12)c1ccccc1 [Compound 14O],102,119,119,–,–,–
CC(NC(C)c1cccc2ccccc12)c1ccccc1 (centres unmarked) [Compound 14P],78,103,112,–,–,–
C[C@@H](N[C@H](C)c1cccc2ccccc12)c1cccc(Cl)c1 [Compound 14Q],78,101,–,–,–,–
CC(NC(C)c1cccc2ccccc12)c1ccc(Cl)cc1 (centres unmarked) [Compound 14S],105,106,116,–,–,–
COc1cccc(C(C)NC(C)c2cccc3ccccc23)c1 (centres unmarked) [Compound 14Z],82,103,118,–,–,–
COc1cccc(CCNC(C)c2cccc3ccccc23)c1 (centres unmarked) [Compound 15I],75,93,111,–,–,–
COc1ccc(CCNC(C)c2cccc3ccccc23)cc1 (centres unmarked) [Compound 15J],64,75,80,–,–,–
